The results in this text go back to patent US20030166561A1, “Peptide” (priority 1999, published 2003).

For one experiment, the system named is βTC6-F7 cells. Kind of experiment: Effect of preptin on glucose-stimulated insulin secretion from cultured βTC6-F7 cells. The format is cell-based, murine. As to conditions: 10 mM glucose. How it is done:
Insulin and amylin are known to modulate β-cell insulin secretion via presumed autocrine mechanisms. The effect of preptin on insulin secretion was therefore tested using a β-cell secretagogue protocol βTC6-F7 cells were subcultured at passage #52 into 24-well plates at 4×10^5 cells/well. They were grown for 3d in nDMEM to 80% confluence, then washed twice with KRB-HEPES. Stock preptin was serially diluted in incubation medium containing 10 mM D(+) glucose to yield final concentrations of 150, 75, 25, 5, 1 and 0.1 nM. Cells were then washed, and 1 ml/well of incubation medium containing 10 mM and-various final preptin concentrations was added to each well. Cells were incubated at 37° C. for 2 h, then medium removed. Cells were washed thrice with PBS, then lysed with 500 μl of lysis buffer. Incubation medium was centrifuged (16,000×g, 3 min) and the supernatant separated from pelleted debris. Incubation medium and lysates were then analyzed for insulin, preptin and protein as above.

The test system of experiment [1] is isolated perfused rat pancreas. Kind of experiment: Insulin secretion from glucose-stimulated isolated-perfused rat pancreas (infusion of preptin or anti-preptin γ-globulin). The settings on record: 75 nM preptin, 20 mM glucose; compared with control (0-added preptin); p=0.03. The protocol: Pancreases from fasted adult male Wistar rats (300±25 g) were isolated and prepared (Grodsky and Fanska 1975). Pancreases were perfused with KHB supplemented with 4% dextran, 0.5% BSA, 3 mM arginine and 5.5 mM glucose. Perfusate was gassed with 95% 02:5% CO2 and infused by peristaltic pump (2.7 ml.min^−1 without re-circulation). Pancreases were perfused and equilibrated for 20 min prior to each 70 min perfusion experiment. 10 min into the experiment either carrier buffer (0.1% BSA in 0.9% NaCl), preptin dissolved in carrier buffer, anti-preptin Ig or non-immunised rabbit Ig (both diluted in carrier buffer) were introduced via a side-arm infusion (final concentrations in perfusate: 75 nM preptin; 35 μg.ml^−1 Ig). In addition, at 25 min, glucose was infused for 20 min (final concentration in perfusate: 20 mM). […]
Pancreases were perfused with KHB supplemented with 4% dextran, 0.5% BSA, 3 mM-arginine and 5.5 mM glucose (final concentrations). […] 10-min into the experiment either anti-preptin γ-globulin or non-immune rabbit γ-globulin were introduced via a side-arm infusion (final γ-globulin concentration in perfusate: 35 μg.ml^−1 in carrier buffer (0.1% BSA in 0.9% NaCl). In addition, at 25-min, glucose was infused for 20-min (measured final concentration in perfusate: 20 mM). Continuous 1-min fractions were collected on ice and assayed for insulin (RIA).

Where no end group is shown, it is not given here.

With “DVSTSQAVLPDDFPRYPVGKFFKFDTWRQSAGRL [synthetic rat preptin, 34 amino acid peptide, Asp69-Leu102 of rat proIGF-II E-peptide, chemically synthesized using Fmoc chemistry]”, in the experiment on βTC6-F7 cells, the “preptin concentration at which effect on insulin secretion reached maximal” value amounted to 75 nM. For the same sequence, the “glucose-stimulated secretion of insulin” value in the experiment on βTC6-F7 cells (2 h, 37° C., compared to controls (0 added preptin)) is reported as “enhanced”. Also, in the experiment on βTC6-F7 cells (compared to controls (0 added preptin)), the “preptin concentration at which significant effects on insulin secretion were detected” value was no less than 0.1 nM. The “enhancement of second phase of insulin secretion (areas-under-curve)” value in experiment [1] was 30%.
